This note sets out measurements from patent US7754866B2 (Arena Pharmaceuticals, Inc., priority 1997, dated 2010).

Series [1] deals with T1, mutated human 5HT2C receptor (AP-1) (Homo sapiens, UniProt P28335, S310K).
T1 construct: expressed in transfected cells; host or cells: COS7 cells, pCMV vector, transient
T1 sequence (P28335 33-458 S310K): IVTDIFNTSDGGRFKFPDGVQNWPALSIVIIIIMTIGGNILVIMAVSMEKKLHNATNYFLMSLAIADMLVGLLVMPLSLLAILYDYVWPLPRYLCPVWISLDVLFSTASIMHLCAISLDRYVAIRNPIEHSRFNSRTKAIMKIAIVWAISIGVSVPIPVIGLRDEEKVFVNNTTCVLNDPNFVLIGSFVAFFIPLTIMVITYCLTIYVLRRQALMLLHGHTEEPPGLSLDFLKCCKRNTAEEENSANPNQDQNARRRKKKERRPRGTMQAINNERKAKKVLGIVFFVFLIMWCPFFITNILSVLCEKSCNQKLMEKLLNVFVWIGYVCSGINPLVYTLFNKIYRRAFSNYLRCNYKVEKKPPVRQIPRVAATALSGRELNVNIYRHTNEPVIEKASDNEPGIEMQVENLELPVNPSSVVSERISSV
Briefly: Competitive binding assay, [3H]mesulergine, AP-1. To be noted: Competitive Binding AP-1 ([3H]mesulergine) IC50 Value (μM), 1 nM [3H]mesulergine, COS7 membranes.

Series [2] addresses T2, human mutated 5HT2A receptor, AP-3 (Homo sapiens, UniProt P28223, T25N, form not given).
T2 construct: rows headed: inverse agonist activity at the human 5HT2A receptor; other: summary statement; fused on or other part: Possibly intracellular loop 3 and cytoplasmic tail of human 5-HT2C (P28335), if the statement rests on AP-3
Kind of series: Inositol phosphate accumulation assay, AP-3.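 Also: transfected 293 cells prelabeled with 3H-inositol, exposed to compound 120 min at 37 °C with LiCl and pargyline, inositol trisphosphates isolated by anion exchange and counted by scintillation.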 To be noted: summary statement. Format: cell-based.

For series [3], the system named is amphetamine-stimulated locomotion. Briefly: Amphetamine-stimulated locomotor activity. To be noted: rats, s.c. 0.1, 1.0, 5.0 mg/kg; with exception of the highest dose (10 mg/kg); d-amphetamine sulfate 1.0 mg/kg. Format: in vivo, Sprague-Dawley rats. From the text: A 5HT2A receptor antagonist or inverse agonist is expected to decrease amphetamine-stimulated locomotion without affecting baseline locomotion See, for example, Soresnon, et al, 266(2) J. Pharmacol. Exp. Ther. 684 (1993). […] For the following study, the following parameters and protocol were utilized:
Adult male Sprague-Dawley rats were utilized for these studies. Animals were housed in groups of 2-3 in hanging plastic cages with food and water available at all times. Animals were weighed and handled for at least one day prior to surgery and throughout the studies. For these studies, Vehicle consisted of 90% ethanol (100%) and 10% water.
A San Diego Instruments Flex Field apparatus was used to quantify baseline and amphetamine-stimulated locomotor activity. This apparatus consists of four 16″×16″ clear plastic open fields. Photocell arrays (16 in each dimension) interfaced with a personal computer to automatically quantify activity. Several measures of activity can be assessed with the apparatus, including total photocell beam breaks. Animals (vehicle control and Compound treated) were injected s.c. 30 minutes prior to initiation of analysis. Following this 30 minute period, animals were placed individually into an open field and baseline activity was assessed for 30 minutes (habituation phase). […]

T2 sequence (P28223 whole entry T25N, looked up, form open, the tested form may be a part): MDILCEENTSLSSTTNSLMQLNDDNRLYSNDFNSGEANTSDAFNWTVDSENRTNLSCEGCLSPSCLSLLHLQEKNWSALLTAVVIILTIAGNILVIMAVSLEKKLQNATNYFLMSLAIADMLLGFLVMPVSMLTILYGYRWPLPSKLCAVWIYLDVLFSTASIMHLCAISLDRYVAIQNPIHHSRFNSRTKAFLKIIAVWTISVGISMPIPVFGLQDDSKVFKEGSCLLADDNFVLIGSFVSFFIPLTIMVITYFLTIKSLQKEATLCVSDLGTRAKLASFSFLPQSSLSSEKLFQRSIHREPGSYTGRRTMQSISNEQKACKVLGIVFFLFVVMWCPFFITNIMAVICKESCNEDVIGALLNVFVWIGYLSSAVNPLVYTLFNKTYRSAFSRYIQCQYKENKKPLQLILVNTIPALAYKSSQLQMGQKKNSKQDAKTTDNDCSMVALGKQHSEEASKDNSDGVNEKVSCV

One may read the IC50 as the concentration at which inhibition is half-maximal. One may read the melting point as the temperature of the solid-liquid transition. `Cn1cc(Br)c(-c2cccc(NC(=O)c3cccs3)c2)n1` [Compound 116102, N-[3-(4-bromo-1-methylpyrazol-3-yl)phenyl][2-thienyl]carboxamide]: the melting point fell in the range of 127.8 to 128.6 °C. In addition, the half-maximal inhibitory concentration (IC50) in series [1] is 2.8 µM. Also, the “inverse agonist activity at the human 5HT2A receptor” value in series [2] was “potent inverse agonist”. Besides, the “amphetamine-stimulated locomotion (photobeam breaks)” value in series [3] was “decrease”.
